Laboratory results from patent US9113629B2, “4-amino-6-(4-substituted-phenyl)-picolinates and 6-amino-2-(4-substituted-phenyl)-pyrimidine-4-carboxylates and their use as herbicides” (DOW AGROSCIENCES LLC, priority 2013, dated 2015).
Like-named read-outs stand apart in the source and are kept apart here.

What was measured:
[1] = tested on: Key Grass and Sedge Weeds as well as Grass Crops; assay: Post-emergent Test II herbicidal activity (Table 6); assay type: in vivo; conditions: post-emergence, 336 h; for pest or weed control at 70 g/ha: application rate 70 g ai/ha; for pest or weed control at 140 g/ha: application rate 140 g ai/ha
How it was run: (§1)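 Greenhouse-grown plants at first or second true leaf stage were sprayed post-emergence with compound in acetone/DMSO-based aqueous spray containing crop oil concentrate and surfactant, at 187 L/ha, highest rate plus ½× to 1/16× dilutions. After 14 d, injury was scored visually versus untreated plants, 0 (none) to 100% (complete kill).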

[2] = tested on: Key Broadleaf Weed and Crop Species; assay: Post-emergent Test II herbicidal activity (Table 5); assay type: in vivo; conditions: post-emergence, 336 h, post-emergent, 14 days after application; for pest or weed control at 70 g/ha: 70 g ai/ha; for pest or weed control at 140 g/ha: 140 g ai/ha
How it was run: as §1

[3] = Triticum aestivum, TRZSS (wheat), read-out: Visual Growth Reduction (%) 14 Days After Application, TRZSS
[4] = CYPES: yellow nutsedge (Cyperus esculentus), read-out: Visual Growth Reduction (%) 14 Days After Application, CYPES
[5] = DIGSA: crabgrass (Digitaria sanguinalis), read-out: Visual Growth Reduction (%) 14 Days After Application, DIGSA
[6] = ECHCG: barnyardgrass (Echinochloa crus-galli), read-out: Visual Growth Reduction (%) 14 Days After Application, ECHCG
[7] = ORYSA: rice (Oryza sativa), read-out: Visual Growth Reduction (%) 14 Days After Application, ORYSA
[8] = SETFA: giant foxtail (Setaria faberi), read-out: Visual Growth Reduction (%) 14 Days After Application, SETFA
[9] = SORVU: grain sorghum (Sorghum vulgare), read-out: Visual Growth Reduction (%) 14 Days After Application, SORVU
[10] = ZEAMX: maize, corn (Zea mays), read-out: Visual Growth Reduction (%) 14 Days After Application, ZEAMX
[11] = ABUTH: velvetleaf (Abutilon theophrasti), read-out: Visual Growth Reduction (%) 14 Days After Application ABUTH
[12] = AMARE: redroot pigweed (Amaranthus retroflexus), read-out: Visual Growth Reduction (%) 14 Days After Application AMARE
[13] = BRSNN: oilseed-rape, canola (Brassica napus), read-out: Visual Growth Reduction (%) 14 Days After Application BRSNN
[14] = CHEAL: lambsquarters (Chenopodium album), read-out: Visual Growth Reduction (%) 14 Days After Application CHEAL
[15] = EPHHL: wild poinsettia (Euphorbia heterophylla), read-out: Visual Growth Reduction (%) 14 Days After Application EPHHL
[16] = HELAN: sunflower (Helianthus annuus), read-out: Visual Growth Reduction (%) 14 Days After Application HELAN
[17] = VIOTR: wild pansy (Viola tricolor), read-out: Visual Growth Reduction (%) 14 Days After Application VIOTR

Q: Which pest or weed control at 70 g/ha [1, 3] does the source give for `C#Cc1ccc(-c2nc(C(=O)OC)c(Cl)c(N)c2Cl)cc1` [Compound 34] here?
A: The pest or weed control at 70 g/ha was 60 to 74%.

Q: And the pest or weed control at 140 g/ha [1, 3]?
A: The pest or weed control at 140 g/ha was 60 to 74%.

Q: And the pest or weed control at 70 g/ha [1, 4]?
A: The pest or weed control at 70 g/ha was 60 to 74%.

Q: What about the pest or weed control at 140 g/ha [1, 4] of the same compound?
A: Its pest or weed control at 140 g/ha is 60 to 74%.

Q: And the pest or weed control at 70 g/ha [1, 5]?
A: Its pest or weed control at 70 g/ha is 0 to 29%.

Q: What about the pest or weed control at 140 g/ha [1, 5] of the same compound?
A: The pest or weed control at 140 g/ha was 45 to 59%.

Q: What about the pest or weed control at 70 g/ha [1, 6] of the same compound?
A: Its pest or weed control at 70 g/ha is 0 to 29%.

Q: And the pest or weed control at 140 g/ha [1, 6]?
A: Its pest or weed control at 140 g/ha is 0 to 29%.

Q: What about the pest or weed control at 70 g/ha [1, 7] of the same compound?
A: The pest or weed control at 70 g/ha was 0 to 29%.

Q: What about the pest or weed control at 140 g/ha [1, 7] of the same compound?
A: The pest or weed control at 140 g/ha was 0 to 29%.

Q: What about the pest or weed control at 70 g/ha [1, 8] of the same compound?
A: The pest or weed control at 70 g/ha was 75 to 84%.

Q: What about the pest or weed control at 140 g/ha [1, 8] of the same compound?
A: Its pest or weed control at 140 g/ha is 85 to 94%.

Q: And the pest or weed control at 70 g/ha [1, 9]?
A: The pest or weed control at 70 g/ha was 30 to 44%.

Q: And the pest or weed control at 140 g/ha [1, 9]?
A: The pest or weed control at 140 g/ha was 45 to 59%.

Q: What about the pest or weed control at 70 g/ha [1, 10] of the same compound?
A: Its pest or weed control at 70 g/ha is 60 to 74%.

Q: And the pest or weed control at 140 g/ha [1, 10]?
A: Its pest or weed control at 140 g/ha is 60 to 74%.

Q: And the pest or weed control at 70 g/ha [2, 11]?
A: Its pest or weed control at 70 g/ha is 95 to 100%.

Q: What about the pest or weed control at 140 g/ha [2, 11] of the same compound?
A: Its pest or weed control at 140 g/ha is 95 to 100%.

Q: And the pest or weed control at 70 g/ha [2, 12]?
A: The pest or weed control at 70 g/ha was 95 to 100%.

Q: And the pest or weed control at 140 g/ha [2, 12]?
A: The pest or weed control at 140 g/ha was 95 to 100%.

Q: And the pest or weed control at 70 g/ha [2, 13]?
A: The pest or weed control at 70 g/ha was 85 to 94%.

Q: What about the pest or weed control at 140 g/ha [2, 13] of the same compound?
A: The pest or weed control at 140 g/ha was 95 to 100%.

Q: And the pest or weed control at 70 g/ha [2, 14]?
A: The pest or weed control at 70 g/ha was 95 to 100%.

Q: And the pest or weed control at 140 g/ha [2, 14]?
A: The pest or weed control at 140 g/ha was 95 to 100%.

Q: And the pest or weed control at 70 g/ha [2, 15]?
A: Its pest or weed control at 70 g/ha is 75 to 84%.

Q: What about the pest or weed control at 140 g/ha [2, 15] of the same compound?
A: Its pest or weed control at 140 g/ha is 85 to 94%.

Q: And the pest or weed control at 70 g/ha [2, 16]?
A: Its pest or weed control at 70 g/ha is 95 to 100%.

Q: What about the pest or weed control at 140 g/ha [2, 16] of the same compound?
A: Its pest or weed control at 140 g/ha is 95 to 100%.

Q: What about the pest or weed control at 70 g/ha [2, 17] of the same compound?
A: Its pest or weed control at 70 g/ha is 0 to 29%.

Q: What about the pest or weed control at 140 g/ha [2, 17] of the same compound?
A: The pest or weed control at 140 g/ha was 0 to 29%.

Q: How did the pest or weed control at 70 g/ha [1, 3] turn out when `Nc1c(Cl)c(C(=O)O)nc(-c2ccc(C(F)(F)F)c(F)c2)c1Cl` [Compound 146] was run?
A: Its pest or weed control at 70 g/ha is 60 to 74%.

Q: What about the pest or weed control at 140 g/ha [1, 3] of the same compound?
A: Its pest or weed control at 140 g/ha is 75 to 84%.

Q: And the pest or weed control at 70 g/ha [1, 4]?
A: Its pest or weed control at 70 g/ha is 95 to 100%.

Q: And the pest or weed control at 140 g/ha [1, 4]?
A: The pest or weed control at 140 g/ha was 95 to 100%.

Q: What about the pest or weed control at 70 g/ha [1, 5] of the same compound?
A: Its pest or weed control at 70 g/ha is 60 to 74%.

Q: And the pest or weed control at 140 g/ha [1, 5]?
A: Its pest or weed control at 140 g/ha is 60 to 74%.

Q: And the pest or weed control at 70 g/ha [1, 6]?
A: The pest or weed control at 70 g/ha was 75 to 84%.

Q: And the pest or weed control at 140 g/ha [1, 6]?
A: Its pest or weed control at 140 g/ha is 85 to 94%.

Q: What about the pest or weed control at 70 g/ha [1, 7] of the same compound?
A: Its pest or weed control at 70 g/ha is 0 to 29%.

Q: And the pest or weed control at 140 g/ha [1, 7]?
A: Its pest or weed control at 140 g/ha is 0 to 29%.

Q: What about the pest or weed control at 70 g/ha [1, 9] of the same compound?
A: Its pest or weed control at 70 g/ha is 30 to 44%.

Q: And the pest or weed control at 140 g/ha [1, 9]?
A: The pest or weed control at 140 g/ha was 30 to 44%.

Q: And the pest or weed control at 70 g/ha [1, 10]?
A: The pest or weed control at 70 g/ha was 60 to 74%.

Q: What about the pest or weed control at 140 g/ha [1, 10] of the same compound?
A: The pest or weed control at 140 g/ha was 60 to 74%.

Q: And the pest or weed control at 70 g/ha [2, 11]?
A: Its pest or weed control at 70 g/ha is 75 to 84%.

Q: And the pest or weed control at 140 g/ha [2, 11]?
A: Its pest or weed control at 140 g/ha is 85 to 94%.

Q: What about the pest or weed control at 70 g/ha [2, 12] of the same compound?
A: Its pest or weed control at 70 g/ha is 75 to 84%.

Q: And the pest or weed control at 140 g/ha [2, 12]?
A: The pest or weed control at 140 g/ha was 85 to 94%.

Q: What about the pest or weed control at 70 g/ha [2, 13] of the same compound?
A: Its pest or weed control at 70 g/ha is 85 to 94%.

Q: What about the pest or weed control at 140 g/ha [2, 13] of the same compound?
A: Its pest or weed control at 140 g/ha is 85 to 94%.

Q: What about the pest or weed control at 70 g/ha [2, 14] of the same compound?
A: The pest or weed control at 70 g/ha was 85 to 94%.

Q: What about the pest or weed control at 140 g/ha [2, 14] of the same compound?
A: Its pest or weed control at 140 g/ha is 85 to 94%.

Q: And the pest or weed control at 70 g/ha [2, 15]?
A: The pest or weed control at 70 g/ha was 0 to 29%.

Q: And the pest or weed control at 140 g/ha [2, 15]?
A: The pest or weed control at 140 g/ha was 0 to 29%.

Q: What about the pest or weed control at 70 g/ha [2, 16] of the same compound?
A: The pest or weed control at 70 g/ha was 95 to 100%.

Q: What about the pest or weed control at 140 g/ha [2, 16] of the same compound?
A: The pest or weed control at 140 g/ha was 95 to 100%.

Q: And the pest or weed control at 70 g/ha [2, 17]?
A: The pest or weed control at 70 g/ha was 0 to 29%.

Q: What about the pest or weed control at 140 g/ha [2, 17] of the same compound?
A: Its pest or weed control at 140 g/ha is 0 to 29%.

Q: What does the source list for `COC(=O)c1nc(-c2cc(F)c(F)cc2F)c(F)c(N)c1Cl` [Compound 200, Methyl 4-amino-3-chloro-5-fluoro-6-(2,4,5-trifluorophenyl)picolinate]?
A: pest or weed control at 70 g/ha [1, 3]: 30 to 44%; pest or weed control at 140 g/ha [1, 3]: 30 to 44%; pest or weed control at 70 g/ha [1, 4]: 0 to 29%; pest or weed control at 140 g/ha [1, 4]: 45 to 59%; pest or weed control at 70 g/ha [1, 5]: 75 to 84%; pest or weed control at 140 g/ha [1, 5]: 75 to 84%; pest or weed control at 70 g/ha [1, 6]: 75 to 84%; pest or weed control at 140 g/ha [1, 6]: 75 to 84%; pest or weed control at 70 g/ha [1, 7]: 0 to 29%; pest or weed control at 140 g/ha [1, 7]: 0 to 29%; pest or weed control at 70 g/ha [1, 8]: 45 to 59%; pest or weed control at 140 g/ha [1, 8]: 75 to 84%; pest or weed control at 70 g/ha [1, 9]: 0 to 29%; pest or weed control at 140 g/ha [1, 9]: 0 to 29%; pest or weed control at 70 g/ha [1, 10]: 45 to 59%; pest or weed control at 140 g/ha [1, 10]: 60 to 74%; pest or weed control at 70 g/ha [2, 11]: 95 to 100%; pest or weed control at 140 g/ha [2, 11]: 95 to 100%; pest or weed control at 70 g/ha [2, 12]: 95 to 100%; pest or weed control at 140 g/ha [2, 12]: 95 to 100%; pest or weed control at 70 g/ha [2, 13]: 95 to 100%; pest or weed control at 140 g/ha [2, 13]: 95 to 100%; pest or weed control at 70 g/ha [2, 14]: 95 to 100%; pest or weed control at 140 g/ha [2, 14]: 95 to 100%; pest or weed control at 70 g/ha [2, 15]: 95 to 100%; pest or weed control at 140 g/ha [2, 15]: 95 to 100%; pest or weed control at 70 g/ha [2, 16]: 85 to 94%; pest or weed control at 140 g/ha [2, 16]: 95 to 100%; pest or weed control at 70 g/ha [2, 17]: 75 to 84%; pest or weed control at 140 g/ha [2, 17]: 95 to 100%
